Reference: ChEMBL document CHEMBL3507680, “University of Dundee, Gates Library screen for HepG2 cell viability”

Test: Human HepG2 cell viability assay in 384 well format
Type: toxicity, cell-based
Parameters: dose 125 nL, time 70.5 hour; cytotoxicity at 70.5 h: concentration not given beside the values
Conditions: HepG2 cells, read-out: Inhibition

Row | SMILES | cytotoxicity at 70.5 h [%]
1 | CCN(Cc1ccoc1)C(C(N)=O)c1ccc(Br)cc1 (stereo not drawn) | 16.2
2 | CNC(=O)[C@@H](c1ccccc1OC)N1CCC[C@H]1C(=O)NC1CC1 | -1.71
3 | O=C(c1cc[nH]n1)N1CCC(c2nccn2Cc2ccncc2)CC1 | 0.529
4 | CCc1c(C)nc2ccccc2c1N1CCC(NC(C)=O)CC1 | -6.65
5 | CCSc1ncc(CN2CCN(c3ncc(C)c(N)n3)CC2)cn1 | -9.95
6 | OCC(O)CSCc1cn(-c2ccc(Cl)c(Cl)c2)nn1 (stereo not drawn) | -5.28
7 | COc1ccc(S(=O)(=O)NCCC(O)c2cccs2)c(C)c1 (stereo not drawn) | -8.98
8 | O=C(O)[C@@H]1CN(C(=O)CN2Cc3ccccc3C2)C[C@H]1c1ccncc1 | -1.71
9 | CC(C)N(C)C(=O)c1ccc(CNc2ncc(C#N)cc2Cl)cc1 | 18.7
10 | CCS(=O)(=O)NCC1Cn2nnc(-c3cccc(C)c3)c2CO1 (stereo not drawn) | -5.93
11 | CC(c1nc(C2CC2)no1)N1CCN(Cc2ccccc2)CC1 (stereo not drawn) | -4.04
12 | CNC(=O)[C@@]12CCCN(c3ncccn3)[C@@H]1CN(c1ncc(C)cn1)C2 | -4.37
13 | Cn1cnc2c1C(COCC1CCOCC1)CN(C(=O)c1ccoc1)C2 (stereo not drawn) | 11.3
14 | CCC(C)NC(=O)c1ccc(CNC(=O)CCC(C)C)cc1 (stereo not drawn) | 15.4
15 | CN1C(=O)[C@H]2CC[C@@H]1CN(C(=O)Nc1cccc3ccccc13)C2 | -6.28
16 | CCCc1nc(N[C@H]2COC[C@@H]2N2CCCC2)c2cnn(C)c2n1 | -7.83
17 | COc1ccc(-n2nnnc2C(C)(C)Nc2ccc(C)cc2C)cc1 | 40.2
18 | CCCn1cnnc1CNC1CSCCSC1 | -9.24
19 | O=C(c1cccc2c1OCCO2)N1CCCC(n2ccnc2)C1 (stereo not drawn) | -5.73
20 | CC(O)CN1CCC(CNCc2cccc(C(F)(F)F)c2)CC1 (stereo not drawn) | 2.27
21 | CC(C)[C@@H]1CN(S(=O)(=O)Cc2ccccc2)C[C@H]1C(=O)O | -3.52
22 | Cc1nnc(CN2CCOC(c3ccc(Cl)c(Cl)c3)C2)o1 (stereo not drawn) | -3.49
23 | O=C(c1cc(-n2cccn2)ccn1)N1CCOc2ccncc21 | -0.581

Row | SMILES | cytotoxicity at 70.5 h [%]
24 | O=C(Cn1cccn1)N(CCO)CCSc1ccc(Cl)cc1 | -11.6
25 | CNC(=O)c1cccnc1NCc1ccc(-n2cccn2)cc1 | 4
26 | CN(C)CC(=O)N1Cc2nc(C(=O)NCc3ccncc3)oc2C1 | -14.7
27 | NC(=O)N1CCC(C(=O)NC2CCc3nccn3C2)CC1 (stereo not drawn) | -110
28 | CC(=O)c1c(C)nn(S(=O)(=O)c2ccc(F)cc2)c1C | 1.95
29 | Cc1n[nH]cc1CNC(C)c1cccc(N2CCCC2=O)c1 (stereo not drawn) | 14.3
30 | Cn1cccc1C(=O)NC[C@H]1C[C@@H]2CN(C(=O)c3ccco3)C[C@@H]2O1 | -1.72
31 | Cc1n[nH]c(C)c1CN(C)C(C(=O)O)c1c(F)cccc1OC(C)C (stereo not drawn) | -4.07
32 | c1ccc2nc(CN3CCCC3c3noc(C4CC4)n3)ccc2c1 (stereo not drawn) | 21.2
33 | COc1cc(CNCCn2ccnc2)cc2c1OCO2 | 1.27
34 | COC(=O)c1ccc2nc(CO[C@H]3CN(CC4CC4)C[C@H]3F)[nH]c2c1 | 1.07
35 | Cc1nc2cc(C(=O)N3CCCC(n4cncn4)C3)ccc2n1C (stereo not drawn) | 22.7
36 | Cc1cc(-c2cnc(N3CCNC(=O)C3)nc2-c2ccoc2C)on1 | -6.66
37 | Cc1cccc(Nc2cc(C)nc(C3CCN(C(C)C)C3)n2)n1 (stereo not drawn) | 15.7
38 | Cc1ccc(C(=O)NC2CCN(Cc3nc(CC(C)C)no3)CC2)s1 | 1.36
39 | CN(c1ncccc1C#N)C1CCN(CCc2ccncc2)CC1 | -1.68
40 | CCc1noc(C2CCN(C(=O)CCn3nc(C)cc3C)CC2)n1 | -12.9
41 | CC(C)n1nc(CN(C)C)c2c1CN(CC1CC1)CC2 | 2.39
42 | Cn1cc(C(C)(O)CNC(=O)c2cc(Br)cn2C)cn1 (stereo not drawn) | 7.26
43 | CC(=O)c1cccc(CN2CC(Oc3ccccc3C)C2)c1 | -3.39
44 | COCCN1CCCn2cnc(CNC3CCCC3)c2C1 | 0.0497
45 | O=C(c1ccccc1)N1CCN(CC2CCOc3ccccc3C2)CC1 (stereo not drawn) | -2.76
46 | O=C1NC2(CCNCC2)CC1c1ccccc1 (stereo not drawn) | 30.9

Row | SMILES | cytotoxicity at 70.5 h [%]
47 | CCc1nccn1CC(=O)N1C[C@H]2CC[C@@H]1CN(S(=O)(=O)N(C)C)C2 | 1.78
48 | O=C(c1cnc(-c2ccco2)s1)N1CCCCC1Cn1cccn1 (stereo not drawn) | -9.96
49 | O=c1cc(Cn2cncn2)nc2n1CCCN(Cc1ccc(F)cc1)C2 | 0.75
50 | O=C1[C@H]2CC[C@H](CN(C3CSCCSC3)C2)N1Cc1cscn1 | -7.49
51 | c1cc2nccc(CC3CCCN(Cc4c[nH]cn4)CC3)c2cn1 (stereo not drawn) | -0.459
52 | CCOCCNCC1CCN(CCO)CC1 | -3.07
53 | CCOc1ccc(CNCCCn2ccnc2)cc1Cl | 0.65
54 | O=C(CCc1ccccn1)N1CCCC1 | -3.29
55 | O=C(C1CCC1)N1CCN(Cc2cccnc2)[C@H]2CS(=O)(=O)C[C@H]21 | -2.54
56 | Cc1cc(=O)c2cc(F)ccc2n1CC(=O)O | -3.7
57 | O=C([C@@H]1CCO[C@@H]2CCN(CC3CCOCC3)C[C@H]21)N1CCCC1 | -12.7
58 | O=C(NC[C@]1(O)CN(Cc2ccccc2F)C[C@H]1O)c1ccccn1 | -62.9
59 | O=C1CC(c2cccc(O)c2)c2sc(C(=O)O)c(-c3ccccc3)c2N1 (stereo not drawn) | 26.4
60 | Clc1ccc(CN2CCC3(CC2)CC(c2cccnc2)=NO3)cc1 | 3.85
61 | CCN(CC)C(=O)c1ccn(COc2cccc(Cl)c2Cl)n1 | -2.31
62 | Cn1cc(C2=CCN(CCCC(=O)Nc3ccc(C#N)cc3)CC2)cn1 | 18.4
63 | CC(C#N)CNC(=O)Nc1ccc(-c2ccc[nH]2)cc1 (stereo not drawn) | -0.22
64 | Cc1ncsc1C(=O)NCC1CCC2(CCNCC2)CO1 (stereo not drawn) | -6.8
65 | Cc1ccc(N2Cc3c(CN(C)C)nn(C)c3C2)nn1 | -14.2
66 | Cc1cnn(CCNCc2nc(-c3ccccc3Cl)no2)c1 | 31.1
67 | CCc1nccn1-c1cncc(C2CCCN2CC(=O)N2CCCC2)n1 (stereo not drawn) | -3.79
68 | FC(F)(F)Cn1cc(NCc2cscn2)cn1 | -5.23
69 | CNS(=O)(=O)c1ccc(C(=O)NC2CCOc3ccccc32)o1 (stereo not drawn) | -1.45

Row | SMILES | cytotoxicity at 70.5 h [%]
70 | Cc1cc(C)c(CNC(=O)Cc2ccc3c(c2)CCCC3)c(=O)[nH]1 | -7.45
71 | NC(=O)c1cccc(CCNC(=O)N2Cc3ccccc3C2)c1 | -2.71
72 | CCc1ccc2c(c1)C(CCNC(=O)c1sccc1C)C(=O)N2 (stereo not drawn) | -3.5
73 | O=C(Cn1nc2ccccc2n1)N1CCCn2cncc2C1 | -8.74
74 | CCc1[nH]nc(NC(=O)c2ccc(Cl)cn2)c1C | 7.84
75 | O=C1CC2(CCN(Cc3ccc4cccc(O)c4n3)CC2)CN1 | -5.81
76 | CC(C)(C)OC(=O)NCC1CCN(C(=O)c2ccccc2O)C1 (stereo not drawn) | -0.832
77 | Cc1cnn(CC2CCCCN2C(=O)c2ccc3nncn3c2)c1 (stereo not drawn) | -3.43
78 | CCc1nsc(N2CCCN(C(=O)c3ccc(OC)cc3)CC2)n1 | -10.9
79 | O=S1(=O)NC(c2ccnc(N3CCCC3)n2)=Nc2ccccc21 | -3.65
80 | O=S(=O)(C1CC1)N1Cc2nccn2CC(Cn2cncn2)C1 (stereo not drawn) | -4.4
81 | Cc1ccccc1C(=O)Nc1ccc(OC2CCN(C)CC2)cc1 | -4.55
82 | c1ccc(CCN2CCN(C3CCOC4(CCOCC4)C3)CC2)nc1 (stereo not drawn) | -9.08
83 | Cc1cccc(CN2CCC(n3cc(CCO)nn3)CC2)c1C | 2.7
84 | CCN(C)C[C@@H]1CN(C(=O)c2cc(C(F)(F)F)n[nH]2)C[C@@H]1CO | -10
85 | CN1CCC(NC(=O)CCCc2cc(Cl)sc2Cl)C1=O (stereo not drawn) | -9.29
86 | CC(=O)N1CCN(C(=O)c2sccc2Br)CC1 | 15.1
87 | Cc1nn(C)c(C)c1C1CCCN1C(=O)CCCNc1ncccn1 (stereo not drawn) | -8.51
88 | O=C(CCS(=O)(=O)C1CCCC1)NCCc1cccc(O)c1 | 19.9
89 | O=C(CCNc1ncc2c(n1)CCN2c1ccccc1)N1CCCC1 | -9.59
90 | CSc1ccsc1C(=O)NS(=O)(=O)c1cccc(C#N)c1 | -13.1
91 | O=C(CSc1ccc2c(c1)OCCO2)NS(=O)(=O)c1ccccc1Cl | -4.64
92 | Cc1cnn(CC(=O)N2CCCN(c3ncccc3C#N)CC2)c1 | -1.08

Row | SMILES | cytotoxicity at 70.5 h [%]
93 | O=C(CCOc1cccc(F)c1)N1CCCC(n2cccn2)C1 (stereo not drawn) | -2.03
94 | CCCc1n[nH]c(C2CN(CC(=O)N(C)Cc3ccco3)CCO2)n1 (stereo not drawn) | -6.63
95 | O=C(Cc1ccc(-n2cnnn2)cc1)Nc1nncs1 | -3.13
96 | CC(C)N(Cc1ccc(Cl)c(Cl)c1)C(=O)Cn1cncn1 | 1.18
97 | Cc1nc(NC2(CN3CCCCC3)CCCCC2)c2cnn(C)c2n1 | -18.3
98 | O=C1CCNC(=O)N1CC(=O)N1CCC1c1ccc(F)cc1 (stereo not drawn) | -10.7
99 | Cc1cnc(C(=O)N2Cc3cc(Cl)ccc3OC3(CCOCC3)C2)cn1 | 1.54
100 | c1nc2n(n1)CC(NCc1csc(-c3ccsc3)n1)CC2 (stereo not drawn) | -17.5
101 | O=C1N[C@H]2OCCC[C@H]2[C@H](c2ccccc2)N1 | -12.3
102 | CC1CCN(CCNC(=O)C2CCN(C(=O)C(C)(C)C)CC2)CC1 | -3.74
103 | CC(=O)Nc1ccc(S(=O)(=O)Nc2c(F)cccc2F)cc1 | 1.02
104 | O=C(CCC(F)(F)F)N1CCCC2(CCC(=O)N(CC3CC3)C2)C1 (stereo not drawn) | -15.8
105 | O=C1CN(C(=O)CC2c3ccccc3CCc3ccccc32)CCN1 | 2.75
106 | CC(=O)c1ccc(C(=O)N2C[C@@H]3CC[C@H](C2)N(Cc2ccccc2)C3)s1 | 4.96
107 | CCc1c(C)nc2n(c1=O)CC(C(=O)Nc1ccccc1F)CS2 (stereo not drawn) | 20.5
108 | COCCCC(=O)N(CCC(=O)O)Cc1ccc(F)c(F)c1 | -12.3
109 | COc1cccc(-c2cc(C3CCCNC3)ccn2)c1 (stereo not drawn) | 3.19
110 | Cc1ccc(-c2nc3cc(S(=O)(=O)N4CCCC4)ccc3n2C)o1 | -11.7
111 | Cc1nc(-c2ccc(Cl)s2)sc1C(=O)N(C)CC(N)=O | 11.9
112 | Cc1cccc(C)c1OC1CN(C(=O)C2CC(=O)N(C(C)(C)C)C2)C1 (stereo not drawn) | 18.1
113 | c1cnnc(N2CCCC2CNCc2csc(-c3ccco3)n2)c1 (stereo not drawn) | -11.5
